Literature values in US20260021105A1, “METHOD FOR TREATING PSORIASIS” (Reviva Pharmaceuticals, Inc., priority 2023, published 2026).

Tests used:
[1] = biological target: 5-HT2A (Homo sapiens, UniProt P28223); conditions: as a weak partial agonist or neutral antagonist
[2] = system: D2-4 receptors; conditions: as partial agonist
[3] = biological target: T1, 5-HT1A receptors (Homo sapiens, UniProt P08908); conditions: as partial agonist
T1 sequence (P08908 1-422): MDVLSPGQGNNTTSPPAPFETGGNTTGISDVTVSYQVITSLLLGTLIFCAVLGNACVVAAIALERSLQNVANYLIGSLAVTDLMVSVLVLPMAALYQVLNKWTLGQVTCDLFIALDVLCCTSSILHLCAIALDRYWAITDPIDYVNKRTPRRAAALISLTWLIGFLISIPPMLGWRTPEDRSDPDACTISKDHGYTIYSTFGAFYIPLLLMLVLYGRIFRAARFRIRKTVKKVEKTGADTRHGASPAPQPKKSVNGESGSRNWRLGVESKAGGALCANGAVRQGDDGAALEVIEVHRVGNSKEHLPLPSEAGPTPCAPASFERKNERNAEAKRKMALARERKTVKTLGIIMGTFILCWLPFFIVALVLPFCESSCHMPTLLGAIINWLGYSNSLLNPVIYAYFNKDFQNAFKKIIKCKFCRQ

[4] = biological target: serotonin transporter (SERT) (Homo sapiens, UniProt P31645)
[5] = system: 5-HT2B/7; conditions: as an antagonist

Chain of serotonin transporter (SERT) (P31645 whole entry, species assumed): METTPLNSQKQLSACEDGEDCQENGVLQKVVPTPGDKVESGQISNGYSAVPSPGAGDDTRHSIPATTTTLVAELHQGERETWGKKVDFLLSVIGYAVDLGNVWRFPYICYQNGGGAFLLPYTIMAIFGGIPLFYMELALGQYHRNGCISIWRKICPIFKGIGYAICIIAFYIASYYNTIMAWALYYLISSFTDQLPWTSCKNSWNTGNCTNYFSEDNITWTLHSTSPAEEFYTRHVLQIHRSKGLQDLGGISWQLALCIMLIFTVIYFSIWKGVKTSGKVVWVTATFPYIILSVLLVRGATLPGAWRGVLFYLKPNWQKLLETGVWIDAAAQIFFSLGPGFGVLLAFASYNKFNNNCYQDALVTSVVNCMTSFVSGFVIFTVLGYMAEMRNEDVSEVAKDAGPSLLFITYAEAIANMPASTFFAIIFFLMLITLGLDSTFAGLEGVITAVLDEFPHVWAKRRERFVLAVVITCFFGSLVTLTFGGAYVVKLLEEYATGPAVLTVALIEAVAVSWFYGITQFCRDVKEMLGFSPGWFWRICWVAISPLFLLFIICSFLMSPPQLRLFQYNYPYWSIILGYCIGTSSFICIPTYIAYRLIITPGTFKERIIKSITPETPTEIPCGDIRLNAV
Chain of 5-HT2A (P28223 whole entry, species assumed): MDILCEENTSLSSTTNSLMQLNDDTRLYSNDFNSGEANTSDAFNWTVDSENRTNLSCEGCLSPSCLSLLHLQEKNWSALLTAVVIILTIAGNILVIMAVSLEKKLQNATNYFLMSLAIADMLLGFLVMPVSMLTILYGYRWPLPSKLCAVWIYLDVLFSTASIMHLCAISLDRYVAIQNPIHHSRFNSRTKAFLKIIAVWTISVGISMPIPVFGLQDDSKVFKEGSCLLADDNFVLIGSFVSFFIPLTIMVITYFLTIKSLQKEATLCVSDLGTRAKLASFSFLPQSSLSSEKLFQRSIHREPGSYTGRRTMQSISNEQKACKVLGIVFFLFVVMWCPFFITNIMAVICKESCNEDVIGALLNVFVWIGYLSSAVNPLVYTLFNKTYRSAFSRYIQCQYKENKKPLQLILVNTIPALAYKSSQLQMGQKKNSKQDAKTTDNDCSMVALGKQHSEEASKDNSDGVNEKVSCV

In the case of `O=C1COc2ccc(OCCCCN3CCN(c4cccc(Cl)c4Cl)CC3)cc2N1` [Brilaroxazine], the binding affinity [1] is given as “high binding affinity”, the binding affinity [2] is given as “high binding affinity” and the binding affinity [3] is given as “high binding affinity”. For the same compound, the affinity [4] was “moderate affinity” and the binding affinity [5] was “high binding affinity”.
